The source of these data is article PMC8869097, “Benzothiazole Derivatives as Multifunctional Antioxidant Agents for Skin Damage: Structure–Activity Relationship of a Scaffold Bearing a Five-Membered Ring System” (Antioxidants, 2022).

For one data set, the system named is Microsporum gypseum. Nature of the data set: Antidermatophyte activity, plaque growth inhibition. It is filed as cell-based, Microsporum gypseum CBS 130,948. Particulars: Nannizzia gypsea; 100 μg/mL, SDA; read-out: % Inhibition Growth M. gypseum. How it is done: (§1) The dermatophytes used in this study were Epidermophyton floccosum var. floccosum (Netherlands) CBS 358.93 strain, Trichophyton tonsurans (Netherlands) CBS 483.76 strain, Trichophyton mentagrophytes (Netherlands) CBS 160.66 strain, Microsporum canis (Iran) CBS 131,110 strain, and Microsporum gypseum (Iran) CBS 130,948 strain. All dermatophytes were maintained at 4 °C as agar slants on SDA. Candida albicans (ATCC 10231) was maintained at 4 °C on SDA plate.
(§2) The in vitro antifungal activity against the five selected dermatophytes was evaluated, as previously described, using the plaque growth inhibition method. All compounds were evaluated at the final concentration of 100 µg/mL. The percentages of growth inhibition according to Equation (5) were calculated as the average of three different experiments. I = [(C − T)/C] × 100%,(5) where I is the percentage value of growth inhibition, C is the measure of the diameter of the control circular mycelial inoculum (mm) and T is the extended diameter of the treated mycelial inoculum (mm).
(§3) All synthesized benzothiazole derivatives were evaluated to evaluate their in vitro antifungal activity against the five pathogenic dermatophytes that cause the most common dermatomycoses: Microsporum gypseum, Microsporum canis, Trichophyton mentagrophytes, Trichophyton tonsurans and Epidermophyton floccosum. All compounds were tested at a concentration of 100 µg/mL in DMSO, to evaluate the ability to inhibit the growth of dermatophyte cultures in Sabouraud Dextrose Agar (SDA). Briefly, room temperature incubation was performed and dermatophyte inhibition assessed by measuring the colony diameter at each disc for 7 days. The results are shown in Table 3 and were determined as the average of three different experiments.

For the next data set, the system named is Mia-Paca2 cells. Briefly: Antiproliferative activity. It is filed as cell-based. The note with it: Homo sapiens, MIA PaCa-2. Here is the method: (§4) Human cervical carcinoma (HeLa) and human CD4+T-lymphoblast (CEM) cells were obtained from ATCC (Middlesex, UK). Human pancreatic carcinoma (Mia-Paca 2) cells were kindly provided by Prof. Anna Karlsson (Karolinska Institute, Stockholm, Sweden). All cell lines were grown in Dulbecco’s modified Eagle’s medium (DMEM; Gibco, Carlsbad, CA, USA), supplemented with 10% fetal bovine serum (FBS, Gibso), 0.01M Hepes (Gibco) and 1 mM sodium pyruvate (Gibco) in a humidified 5% CO2 incubator at 37 °C.
(§5) The cell suspensions of CEM, HeLa and Mia-Paca2 were treated with increasing concentrations of the selected compounds, following the protocol previously reported.
(§6) A stock solution of the compounds (20 mM in DMSO) was prepared and stored at −18 °C. Then, the compounds were diluted in the cell culture medium and tested starting with the 100 µM concentration as the upper limit. The application of equation (6) allowed to obtain the values of IC50. C1 − [50 − N1%/N2% − N1%] − (C1 − C2),(6) where C1 is the concentration of the compound which inhibits cell proliferation by more than 50%; C2 is the concentration of the compound which inhibits cell proliferation below 50%; N1% represents the number of cells (expressed as a percentage of control without compound) obtained in the presence of C1 and N2% represents the number of cells (as a percentage of control without compound) obtained in the presence of C2.
(§7) Finally, the compounds of this series of benzothiazole derivatives were tested to evaluate their antiproliferative activity in vitro against human T-cell leukemia cell line (CEM), human cervical carcinoma cells (HeLa), human pancreas cancer cells (Mia Paca-2) and human melanoma cells (SK-Mel 5). Non-cancerous HEK293T cells (Normal Kidney Epithelial Cells) were chosen as a control for cytotoxicity and/or selectivity. The results obtained have been summarized in Table 5 (data shown only for the active compounds) and are expressed as IC50 values in μM. The selectivity index (SI) was also reported, determined by comparing the values of IC50 (μM) obtained on healthy cells (HEK 293) with that obtained on tumor cells (CEM, HeLa, Mia-Paca-2 and SK- Mel 5) (Table 5).

A further data set deals with HeLa cells. Nature of the data set: Antiproliferative activity. It is filed as cell-based. The note with it: Homo sapiens. Here is the method: as §4, §5, §6, §7
Another data set deals with CEM cells. Nature of the data set: Antiproliferative activity. It is filed as cell-based. Particulars: Homo sapiens, CCRF-CEM. How it is done:
as §4, §5, §6, §7

For the next data set, the system named is HEK293T cells. Briefly: Cytotoxicity on non-cancerous control cells. It is filed as cell-based. Particulars: Homo sapiens, HEK-293T, read-out: IC50 Hek293. How it is done:
as §6, §7

For a further data set, the system named is Trichophyton tonsurans. Briefly: Antidermatophyte activity, plaque growth inhibition. The data set is classed as cell-based, Trichophyton tonsurans CBS 483.76. Particulars: 100 μg/mL, SDA, read-out: % Inhibition Growth T. tonsurans. How it is done: as §1, §2, §3
Another data set is described as follows: In vitro DPPH test. The note with it: for DPPH (% Inhibition): compounds at 1 mg/mL, 30 min, 517 nm. Here is the method:
The assay performed is adapted from Wang et al.. Briefly, 0.750 mL of 1 mg/mL solutions of the tested compounds was treated with 1.5 mL of DPPH solution in MeOH. The absorbance of samples, stored for 30 min at room temperature in the dark, was read on the spectrophotometer at 517 nm. The values obtained were converted into a radical inhibition percentage (%) by Equation (1). DPPH radical scavenging capacity (%) = [1 − A1/A0] × 100%(1) where A0 and A1 were, respectively, the absorbance without and with the sample. Subsequently, the compound with the best profile was tested in order to determine the IC50 (µg/mL). A linear regression plot is performed to calculate the actual sample concentration required to eliminate 50% of the DPPH free radicals.
The antioxidant activity of a molecule is very important and, if present, it can be synergistic with the SPF described above in reducing the damage that is ROS-induced by UV rays. For this reason, the synthesized compounds were assayed in vitro to assess their antioxidant profiles by means of the DPPH and FRAP assays (Table 2). Regarding the ability to scavenge the stable radical 2,2-diphenyl-1-picrylhydrazyl (DPPH), it was decided to investigate first the compounds synthesized at the same concentration (1 mg/mL) and evaluate the percentage of inhibition of the radical DPPH.
A general note: The DPPH test is a chemical assay of radical scavenging.

Each structure is given as a SMILES string.

As for `c1c[nH]c(-c2nc3ccccc3s2)c1` [Compound 8a, 2-(1H-Pyrrol-2-Yl)benzothiazole], the melting point was 132 °C. Besides, in the data set with Microsporum gypseum, the inhibition at 100 µg/mL is 50 ± 1.34%. For the same molecule, the IC50 in the data set with Mia-Paca2 cells was determined as 87 ± 18 µM. In the data set on HeLa cells, this molecule yielded an IC50 of 65 ± 2 µM. The molecule further showed an IC50 in the data set with CEM cells above 100 µM. Moreover, the IC50 in the data set with HEK293T cells worked out at 68 ± 14 µM. Further, the inhibition at 100 µg/mL in the data set with Trichophyton tonsurans came to 7.46 ± 0.05%. Further, in the data set “In vitro DPPH test”, the “DPPH (% Inhibition)” value turned out to be 29.17 ± 1.05%.
In the case of `c1coc(-c2nc3ccccc3s2)c1` [Compound 9a, 2-(Furan-2-Yl)benzothiazole], the melting point came to 103 °C. Also, the inhibition at 100 µg/mL with Microsporum gypseum was 74.78 ± 0.59%. In the data set on Mia-Paca2 cells, this molecule had an IC50 above 100 µM. Moreover, the IC50 with HeLa cells is above 100 µM. This molecule also had an IC50 in the data set with CEM cells of 41 ± 5 µM. Besides, in the data set with HEK293T cells, the IC50 was above 100 µM. For the same molecule, in the data set on Trichophyton tonsurans, the inhibition at 100 µg/mL turned out to be 57.9 ± 0.76%. In addition, the “DPPH (% Inhibition)” value in the data set “In vitro DPPH test” stood at 24.69 ± 0.14%.
Take `c1csc(-c2nc3ccccc3s2)c1` [Compound 10a, 2-(Thiophen-2-Yl)benzothiazole]: the melting point was determined as 99 °C. For the same molecule, the inhibition at 100 µg/mL in the data set with Microsporum gypseum stood at 70.4 ± 0.77%. The IC50 in the data set with Mia-Paca2 cells is above 100 µM. Moreover, the IC50 with HeLa cells was above 100 µM. In the data set on CEM cells, this molecule displayed a concentration for half-maximal inhibition (IC50) of 45 ± 3 µM. For the same molecule, the IC50 with HEK293T cells is above 100 µM. Further, in the data set with Trichophyton tonsurans, the inhibition at 100 µg/mL turned out to be 64.5 ± 0.92%. In addition, the “DPPH (% Inhibition)” value in the data set “In vitro DPPH test” is 85.00 ± 0.88%.
`NS(=O)(=O)c1ccc2nc(-c3cccs3)sc2c1` [Compound 10c, 2-(Thiophen-2-Yl)benzothiazole-6-Sulfonamide] registered a melting point above 250 °C. In the data set on Microsporum gypseum, the inhibition at 100 µg/mL was determined as 12.36 ± 0.05%. Besides, it took 13 ± 3 µM to reach half-maximal inhibition in the data set with Mia-Paca2 cells (IC50). The same molecule registered a half-inhibitory concentration (IC50) in the data set on HeLa cells above 100 µM. In addition, the concentration for half-maximal inhibition (IC50) in the data set with CEM cells was above 100 µM. Moreover, in the data set with HEK293T cells, the IC50 is above 100 µM. Further, the inhibition at 100 µg/mL in the data set on Trichophyton tonsurans amounted to 6.35 ± 0.02%. Moreover, the “DPPH (% Inhibition)” value in “In vitro DPPH test” came to 21.82 ± 0.06%.
Turning to `c1c[nH]c(-c2nc3ccccc3[nH]2)c1` [Lead 10, reference compound], the inhibition at 100 µg/mL in the data set on Microsporum gypseum is 99.1 ± 1.33%; in the data set with Trichophyton tonsurans, 96.97 ± 0.62%. For the same molecule, the IC50 in the data set with Mia-Paca2 cells came to 15 ± 9 µM; with HeLa cells, 37 µM; in the data set on CEM cells, 14 ± 1 µM; in the data set with HEK293T cells, 31 ± 3 µM. The “DPPH IC50” value in the data set “In vitro DPPH test” turned out to be 64 ± 3 µg/mL. Moreover, the “DPPH (% Inhibition)” value in “In vitro DPPH test” came to 70.00 ± 3.25%.

For orientation: inhibition means the relative decrease from the control value, in per cent. As usually defined, the IC50 is the concentration at which inhibition is half-maximal. For orientation: melting point means the temperature of the solid-liquid transition.
